The values below are quoted from earlier work in US20090148502A1, “COMPOSITIONS AND METHODS FOR TREATING LACERATIONS, ABRASIONS, AVULSIONS, BURNS, ULCERS, AND CASES OF EXCESSIVE BLEEDING” (Hemo Nanoscience, LLC, priority 2006, published 2009).

The conditions of data set [1]: in vivo.
Data set [2] deals with wound. The note with it: 0.04% (wt/wt), topically applied.

With `CCCCN1CCCCC1C(=O)Nc1c(C)cccc1C` (centres unmarked) [bupivacaine], the duration of action in data set [1] was 6 to 8 h.

As for “Human EGF: human epidermal growth factor”, the “effect on healing time” value in data set [2] was “successful in reducing the healing time”.
